Reference: US20230159527A1, “COMPOUNDS AS BCL-2 INHIBITORS” (Fochon Pharmaceuticals, Ltd., priority 2020, published 2023)

Each compound was assayed on DoHH2 cells (assay: Cell proliferation assay, DoHH2 cells (MTS, 120 h)). Details: Homo sapiens, DOHH-2.
Type: cell-based
Description: MTS testing kit was purchased from Promega (Madison, Wis., USA). The RPMI-1640, Fetal bovine serum and Penicillin-Streptomycin were purchased from BI (Biological Industries, Beit Haemek, Israel). Dimethyl sulfoxide (DMSO) was purchased from Sigma (St. Louis, Mo., USA). DoHH2 (DSMZ catalog #: ACC47) cells were cultured in RPMI-1640 supplemented with Penicillin-Streptomycin and 10% FBS.
To investigate whether a compound is able to inhibit the activity of BCL-2 in cells, a mechanism-based assay using DoHH2 lines was developed. In this assay, the inhibition of BCL-2 was reflected by the inhibition of cell proliferation of DoHH2 cells. Cells were plated into 96-well plates at the optimized cell density of 5000 cells/well. Plates were incubated at 37° C., with 5% CO2 for 4h. Compounds were serially diluted and added to the plates with the final concentrations of 10000, 3333.3, 1111.1, 370.4, 123.5, 41.2, 13.7, 4.6 and 1.5 nM. Plates were incubated at 37° C., with 5% CO2 for 120 h. 20 μl MTS was added into each well and the plates were incubated at 37° C., with 5% CO2 for exactly 2 h. The absorbance was measured by a microplate reader at 490 nm. IC50 was calculated using GraphPad Prism 5.0 software.

| SMILES | IC50 |
| --- | --- |
| CC(C)c1ccccc1[C@@H]1CCCN1C1CC2(CCN(c3ccc(C(=O)NS(=O)(=O)c4cnc(NCC5CCC(C)(O)CC5)c([N+](=O)[O-])c4)c(Oc4cnc5[nH]ccc5c4)c3)CC2)C1 (stereo partly drawn) [Example A-6b, (S)-2-((1H-pyrrolo[2,3-b]pyridin-5-yl)oxy)-N-((6-(((4-hydroxy-4-methylcyclohexyl)methyl)amino)-5-nitropyridin-3-yl)sulfonyl)-4-(2-(2-(2-isopropylphenyl)pyrrolidin-1-yl)-7-azaspiro[3.5]nonan-7-yl) benzamide] | ≤ 1 nM |
| O=C(NS(=O)(=O)c1cc([N+](=O)[O-])c2c(n1)OC[C@H](COC1CCOCC1)N2)c1ccc(N2CCC3(CC2)CC(N2CCCC2c2ccccc2C2CC2)C3)cc1Oc1cnc2[nH]ccc2c1 (single isomer, unassigned) [Example B-46, 2-((1H-pyrrolo[2,3-b]pyridin-5-yl)oxy)-4-(2-((R or S)-2-(2-cyclopropylphenyl)pyrrolidin-1-yl)-7-azaspiro[3.5]nonan-7-yl)-N-(((S)-8-nitro-2-(((tetrahydro-2H-pyran-4-yl)oxy)methyl)-2,3-dihydro-1H-pyrido[2,3-b] [1,4]oxazin-6-yl)sulfonyl)benzamide] | ≤ 1 nM |
| CC(C)c1ccccc1C1CCCN1C1CC2(CCN(c3ccc(C(=O)NS(=O)(=O)c4cc([N+](=O)[O-])c5c(n4)OC[C@@H](Cc4ccccc4)N5)c(Oc4cnc5[nH]ccc5c4)c3)CC2)C1 (single isomer, unassigned) [Example B-36, 2-((1H-pyrrolo[2,3-b]pyridin-5-yl)oxy)-N-(((R)-2-benzyl-8-nitro-2,3-dihydro-1H-pyrido[2,3-b] [1,4]oxazin-6-yl)sulfonyl)-4-(2-((R or S)-2-(2-isopropylphenyl)pyrrolidin-1-yl)-7-azaspiro[3.5]nonan-7-yl)benzamide] | ≤ 1 nM |
| O=C(NS(=O)(=O)c1cc2c(c([N+](=O)[O-])c1)O[C@@H](CN1CCOCC1)CO2)c1ccc(N2CCC3(CC2)CC(N2CCC[C@H]2c2ccccc2C2CC2)C3)cc1Oc1cnc2[nH]ccc2c1 (single isomer, unassigned) [Example E-34, 2-((1H-pyrrolo [2,3-b]pyridin-5-yl)oxy)-4-(2-((R or S)-2-(2-cyclopropylphenyl)pyrrolidin-1-yl)-7-azaspiro[3.5]nonan-7-yl)-N-(((5)-2-(morpholinomethyl)-8-nitro-2,3-dihydrobenzo [b][1,4]dioxin-6-yl)sulfonyl) benzamide] | ≤ 1 nM |
| CC(C)c1ccccc1C1CCCN1C1CC2(CCN(c3ccc(C(=O)NS(=O)(=O)c4cc([N+](=O)[O-])c5c(n4)OC[C@H](CC4CCOCC4)N5)c(Oc4cnc5[nH]ccc5c4)c3)CC2)C1 (single isomer, unassigned) [Example B-40, 2-((1H-pyrrolo[2,3-b]pyridin-5-yl)oxy)-4-(2-((R or S)-2-(2-isopropylphenyl)pyrrolidin-1-yl)-7-azaspiro[3.5]nonan-7-yl)-N-(((S)-8-nitro-2-((tetrahydro-2H-pyran-4-yl)methyl)-2,3-dihydro-1H-pyrido[2,3-b][1,4]oxazin-6-yl)sulfonyl)benzamide] | ≤ 1 nM |
| O=C(NS(=O)(=O)c1cc2c(c([N+](=O)[O-])c1)O[C@@H](CN1CCOCC1)CO2)c1ccc(N2CCC3(CC2)CC(N2CCOC[C@H]2c2ccccc2C2CC2)C3)cc1Oc1cnc2[nH]ccc2c1 (single isomer, unassigned) [Example E-37, 2-((1H-pyrrolo [2,3-b]pyridin-5-yl)oxy)-4-(2-((R or S)-3-(2-cyclopropylphenyl)morpholino)-7-azaspiro[3.5]nonan-7-yl)-N-(((S)-2-(morpholinomethyl)-8-nitro-2,3-dihydrobenzo [b][1,4]dioxin-6-yl)sulfonyl) benzamide] | ≤ 1 nM |
| O=C(NS(=O)(=O)c1cc2c(c([N+](=O)[O-])c1)N[C@@H](CN1CCOCC1)CCO2)c1ccc(N2CCC3(CC2)CC(N2CCC[C@H]2c2ccccc2C2CC2)C3)cc1Oc1cnc2[nH]ccc2c1 (single isomer, unassigned) [Example D-24, 2-((1H-pyrrolo[2,3-b]pyridin-5-yl)oxy)-4-(2-((R or S)-2-(2-cyclopropylphenyl)pyrrolidin-1-yl)-7-azaspiro[3.5]nonan-7-yl)-N-(((R)-4-(morpholinomethyl)-6-nitro-2,3,4,5-tetrahydrobenzo [b][1,4]oxazepin-8-yl)sulfonyl) benzamide] | ≤ 1 nM |
| CC(C)c1ccccc1C1COCCN1C1CC2(CCN(c3ccc(C(=O)NS(=O)(=O)c4cc5c(c([N+](=O)[O-])c4)N[C@@H](CN4CCC(NS(C)(=O)=O)CC4)CO5)c(Oc4cnc5[nH]ccc5c4)c3)CC2)C1 (single isomer, unassigned) [Example D-23, 2-((1H-pyrrolo[2,3-b]pyridin-5-yl)oxy)-4-(2-((R or S)-3-(2-isopropylphenyl)morpholino)-7-azaspiro[3.5]nonan-7-yl)-N-(((S)-3-((4-(methylsulfonamido)piperidin-1-yl)methyl)-5-nitro-3,4-dihydro-2H-benzo[b][1,4]oxazin-7-yl)sulfonyl)benzamide] | ≤ 1 nM |
| CC(C)c1ccccc1C1COCCN1C1CC2(CCN(c3ccc(C(=O)NS(=O)(=O)c4cc5c(c([N+](=O)[O-])c4)O[C@@H](CN4CCOCC4)CO5)c(Oc4cnc5[nH]ccc5c4)c3)CC2)C1 (single isomer, unassigned) [Example E-36, 2-((1H-pyrrolo [2,3-b]pyridin-5-yl)oxy)-4-(2-((R or S)-3-(2-isopropylphenyl)morpholino)-7-azaspiro[3.5]nonan-7-yl)-N-(((S)-2-(morpholinomethyl)-8-nitro-2,3-dihydrobenzo [b][1,4]dioxin-6-yl)sulfonyl)benzamide] | ≤ 1 nM |
| CC(C)c1ccccc1[C@@H]1COCCN1C1CC2(CCN(c3ccc(C(=O)NS(=O)(=O)c4cc([N+](=O)[O-])c5c(n4)OC[C@H]([C@H]4CC[C@@](C)(O)CC4)N5)c(Oc4cnc5[nH]ccc5c4)c3)CC2)C1 (single isomer, unassigned) [Example B-48, 2-((1H-pyrrolo[2,3-b]pyridin-5-yl)oxy)-N-(((S)-2-((1s,4R)-4-hydroxy-4-methylcyclohexyl)-8-nitro-2,3-dihydro-1H-pyrido[2,3-b] [1,4]oxazin-6-yl)sulfonyl)-4-(2-((R or S)-3-(2-isopropylphenyl)morpholino)-7-azaspiro[3.5]nonan-7-yl) benzamide] | ≤ 1 nM |
| CC(C)c1ccccc1[C@@H]1CCCN1C1CC2(CCN(c3ccc(C(=O)NS(=O)(=O)c4cc([N+](=O)[O-])c5c(n4)OC[C@H]([C@H]4CC[C@@](C)(O)CC4)N5)c(Oc4cnc5[nH]ccc5c4)c3)CC2)C1 (single isomer, unassigned) [Example B-35, 2-((1H-pyrrolo[2,3-b]pyridin-5-yl)oxy)-N-(((S)-2-((1s,4R)-4-hydroxy-4-methylcyclohexyl)-8-nitro-2,3-dihydro-1H-pyrido[2,3-b] [1,4]oxazin-6-yl)sulfonyl)-4-(2-((R or S)-2-(2-isopropylphenyl)pyrrolidin-1-yl)-7-azaspiro[3.5]nonan-7-yl)benzamide] | ≤ 1 nM |
